# Where a SMILES comes first, the peptide text is derived from it. [ ]: non-standard residue; d: D form. ξ: configuration not given here. ξαMeBip(2'-Et,4'-OMe) = CCc1cc(OC)ccc1-c1ccc(CC(C)(N)C(=O)O)cc1; ξBip(2'-Et-4'-OMe) = CCc1cc(OC)ccc1-c1ccc(CC(N)C(=O)O)cc1; ξαMePhe(2,6-F2) = CC(N)(Cc1c(F)cccc1F)C(=O)O; hArg = N=C(N)NCCCC[C@H](N)C(=O)O; hCit = NC(=O)NCCCC[C@H](N)C(=O)O; Cit = NC(=O)NCCC[C@H](N)C(=O)O; ξhhPhe = NC(CCCc1ccccc1)C(=O)O; ξαMeF = CC(N)(Cc1ccccc1)C(=O)O; ξαMeNle = CCCCC(C)(N)C(=O)O; Nle = CCCC[C@H](N)C(=O)O; ξαMeP = CC1(C(=O)O)CCCN1; Ac5c = NC1(C(=O)O)CCCC1; Ac3c = NC1(C(=O)O)CC1; Aib = CC(C)(N)C(=O)O
# System: ovariectomised (OVX) rats
# Assay: In vivo anti-osteoporosis activity testing in OVX rat model (serum calcium, phosphate, bone parameters)
# Parameters: species or system Female Wistar Rats
# Conditions: po
# Text: c) In Vivo Anti-Osteoporosis Activity Testing in OVX Rat Model: The ovariectomised (OVX) rats were used to study anti-osteoporosis activity of test compounds (short-chain peptides) in vivo. The OVX rats develop osteopenia due to ovarian hormone deficiency. Osteopenia can be detected as early as 14 days post OVX, increase for the next 100 days and then stabilised (Wronski T. J., et al., Calcif. Tissue Int., 43(3), 1988, 179-183). Detailed Study Protocol to Evaluate the Effects of Anabolic Therapy on Bone Markers and Histomorphometry in OVX Animals: 10 to 11 weeks old Female Wistar Rats (150-200 g) were used. The animals were kept in individually ventilated cages in a room with controlled temperature (23°±3° C.), lighting (12:12 h light-dark cycle) and relative humidity (55±10%). Animals had free access to standard rat chow and water. Protocol for use of animals for conducting this study has been reviewed and approved by Institutional Animal Ethics Committee (IAEC). The animals were marked with picric acid for identification and acclimatized to experimental room conditions for 2 days prior to initiation of the study. For the induction of osteoporosis, rats were bilaterally ovariectomised under anesthesia. For Ovariectomy, Incision was made on dorsa-lateral side near lumbar region of animal. After that, ovary was excised and the veins were tied with ligature before removing ovary to prevent blood loss. Then incision was sutured back with ligature. After Bilateral ovariectomy, animals were allowed to rest for 4 weeks. They were then divided into different groups (n=9) based on their body weight. The groups consisted of a no treatment control, PTH as standard and one or two groups of test compounds (short-chain peptides). The treatment was given for the duration of 6 weeks. At the last day of treatment animals were kept overnight in metabolic cages under fasting for the collection of Urine. Next day, blood was collected after 24 hours of last dosing and animals were sacrificed. Changes in biochemical parameters and bone turnover parameters (Increase in serum Calcium and decrease in Phosphate levels, Acid Phosphatase and TRAP) were evaluated in the urine and serum. After sacrificing, intact femur and tibial bones are removed and cleaned from adherent tissues, muscles and tendons; weighed and collected in formal saline (10% formaldehyde solution). Lumbar vertebra (L5) was excised, carefully cleaned and collected in formal saline. Femur, tibia and Lumbar vertebra-5 (L5) were later processed for histomorphometric evaluation (Zhang L., et al., Tohoku J Exp Med., 1998, 186(2), 131-41; Tanizawa T., et al., Toxicol Lett., 1998, 102, 399-403).
compound,measurement,setting,value
"CCCCC(C)(NC(=O)[C@H](CC(C)C)NC(=O)[C@H](CCC(N)=O)NC(=O)[C@@H](NC(=O)[C@H](CCC(=O)O)NC(=O)C(C)(C)NC(=O)[C@@H](NC(=O)C(C)(C)N)C(C)C)[C@@H](C)CC)C(=O)N[C@@H](Cc1c[nH]cn1)C(=O)N[C@@H](CCC(N)=O)C(=O)N[C@@H](CCCCNC(=N)N)C(=O)N[C@@H](C)C(=O)N[C@@H](CCCCNC(=N)N)C(=O)NC(C)(Cc1ccc(-c2ccc(OC)cc2CC)cc1)C(=O)NC(CCCc1ccccc1)C(N)=O (stereo partly drawn) [Seq. ID. 911] (H-[Aib]V[Aib]EIQL[ξαMeNle]HQ[hArg]A[hArg][ξαMeBip(2'-Et,4'-OMe)][ξhhPhe]-NH2)",% decrease in serum PO4 Levels (mg/dl) vs control,10 mg/kg,97%
same,% increase in serum Ca^2+ Levels (mg/dl) vs control,10 mg/kg,121%
CCCC[C@H](NC(=O)[C@H](CC(C)C)NC(=O)[C@H](CCC(N)=O)NC(=O)[C@@H](NC(=O)[C@H](CCC(=O)O)NC(=O)C(C)(C)NC(=O)[C@@H](NC(=O)C1(N)CCCC1)C(C)C)[C@@H](C)CC)C(=O)N[C@@H](Cc1c[nH]cn1)C(=O)N[C@@H](CCC(N)=O)C(=O)N[C@@H](CCCCNC(N)=O)C(=O)N[C@@H](C)C(=O)N[C@@H](CCCNC(=N)N)C(=O)NC(Cc1ccc(-c2ccc(OC)cc2CC)cc1)C(=O)NC(CCCc1ccccc1)C(N)=O (stereo partly drawn) [Seq. ID. 779] (H-[Ac5c]V[Aib]EIQL[Nle]HQ[hCit]AR[ξBip(2'-Et-4'-OMe)][ξhhPhe]-NH2),% decrease in serum PO4 Levels (mg/dl) vs control,1 mg/kg,56%
same,% increase in serum Ca^2+ Levels (mg/dl) vs control,1 mg/kg,67%
"CCCC[C@H](NC(=O)C(C)(Cc1c(F)cccc1F)NC(=O)[C@H](CCC(N)=O)NC(=O)[C@@H](NC(=O)[C@H](CCC(=O)O)NC(=O)C(C)(C)NC(=O)[C@@H](NC(=O)C1(N)CCCC1)C(C)C)[C@@H](C)CC)C(=O)N[C@@H](Cc1c[nH]cn1)C(=O)N[C@@H](CCC(N)=O)C(=O)N[C@@H](CCCNC(N)=O)C(=O)N[C@@H](C)C(=O)NC(C)(C)C(=O)NC(Cc1ccc(-c2ccc(OC)cc2CC)cc1)C(=O)NC(CCCc1ccccc1)C(N)=O (stereo partly drawn) [Seq. ID. 847] (H-[Ac5c]V[Aib]EIQ[ξαMePhe(2,6-F2)][Nle]HQ[Cit]A[Aib][ξBip(2'-Et-4'-OMe)][ξhhPhe]-NH2)",% decrease in serum PO4 Levels (mg/dl) vs control,0.5 mg/kg,79%
same,% increase in serum Ca^2+ Levels (mg/dl) vs control,0.5 mg/kg,77%
CC[C@H](C)[C@H](NC(=O)[C@H](CCC(=O)O)NC(=O)C(C)(C)NC(=O)[C@@H](NC(=O)C(C)(C)N)C(C)C)C(=O)N[C@@H](CCC(N)=O)C(=O)N[C@@H](CC(C)C)C(=O)N[C@@H](CCSC)C(=O)N[C@@H](Cc1c[nH]cn1)C(=O)N[C@@H](CCC(N)=O)C(=O)N[C@@H](CCCCNC(=N)N)C(=O)N1CCCC1(C)C(=O)N[C@@H](CCCCN)C(=O)NC(C)(Cc1ccccc1)C(N)=O (stereo partly drawn) [Seq. ID. 7] (H-[Aib]V[Aib]EIQLMHQ[hArg][ξαMeP]K[ξαMeF]-NH2),% decrease in serum PO4 Levels (mg/dl) vs control,1 mg/kg,88%
same,% increase in serum Ca^2+ Levels (mg/dl) vs control,1 mg/kg,90%
"CCCC[C@H](NC(=O)[C@H](CC(C)C)NC(=O)[C@H](CCC(N)=O)NC(=O)[C@@H](NC(=O)[C@H](CCC(=O)O)NC(=O)C(C)(C)NC(=O)[C@@H](NC(=O)C1(N)CCCC1)C(C)C)[C@@H](C)CC)C(=O)N[C@@H](Cc1c[nH]cn1)C(=O)N[C@@H](CCC(N)=O)C(=O)NC(C)(Cc1c(F)cccc1F)C(=O)N[C@@H](C)C(=O)NC(C)(Cc1c(F)cccc1F)C(=O)NC(Cc1ccc(-c2ccc(OC)cc2CC)cc1)C(=O)NC(CCCc1ccccc1)C(N)=O (stereo partly drawn) [Seq. ID. 801] (H-[Ac5c]V[Aib]EIQL[Nle]HQ[ξαMePhe(2,6-F2)]A[ξαMePhe(2,6-F2)][ξBip(2'-Et-4'-OMe)][ξhhPhe]-NH2)",% decrease in serum PO4 Levels (mg/dl) vs control,3 mg/kg,65%
same,% increase in serum Ca^2+ Levels (mg/dl) vs control,3 mg/kg,59%
CCc1cc(OC)ccc1-c1ccc(CC(NC(=O)[C@H](CCCCN)NC(=O)[C@H](C)NC(=O)[C@H](CCCCNC(=N)N)NC(=O)[C@H](CCC(N)=O)NC(=O)[C@H](Cc2c[nH]cn2)NC(=O)[C@H](CCSC)NC(=O)[C@H](CC(C)C)NC(=O)[C@H](CCC(N)=O)NC(=O)[C@@H](NC(=O)[C@H](CCC(=O)O)NC(=O)C2(NC(=O)[C@@H](NC(=O)C(C)(C)N)C(C)C)CC2)[C@@H](C)CC)C(=O)NC(CCCc2ccccc2)C(N)=O)cc1 (stereo partly drawn) [Seq. ID. 607] (H-[Aib]V[Ac3c]EIQLMHQ[hArg]AK[ξBip(2'-Et-4'-OMe)][ξhhPhe]-NH2),% decrease in serum PO4 Levels (mg/dl) vs control,0.01 mg/kg,88%
same,% increase in serum Ca^2+ Levels (mg/dl) vs control,0.01 mg/kg,78%

# — patent US8383581B2, “Short-chain peptides as parathyroid hormone (PTH) receptor agonist” (Cadila Healthcare Limited, priority 2009, dated 2013)
